Test results taken from US20220370463A1, “STABILIZED C-FMS INTRACELLULAR FRAGMENTS (FICD) PROMOTE OSTEOCLAST DIFFERENTIATION AND ARTHRITIC BONE EROSION” (New York Society for the Relief of the Ruptured and …, priority 2019, published 2022).
Entries after “also recorded” stand apart in the source; their conditions may differ.

Legend:
arthritic bone erosion = details: rheumatoid arthritis patients; cited from earlier work
L-FICD generation = experiment: Screening of 53 protease inhibitors from a protease library for L-FICD generation; type: cell-based
Excerpt: To identify the protease(s) responsible for cleavage of H-FICD in an unbiased manner, we performed a screening of 53 protease inhibitors using a protease library. The best hits associated with the inhibition of L-FICD generation were MDL28170 and PD150606—two calpain inhibitors—along with MMP inhibitors and γ-secretase inhibitors. Calpain is the family of calcium-dependent cytosolic cysteine proteases expressed ubiquitously in mammals and many other organisms (Pfaff, M., Du, X. & Ginsberg, M. H. Calpain cleavage of integrin beta cytoplasmic domains. FEBS Lett 460, 17-22 (1999)), and calpain-dependent cleavages contribute to modulating various cellular functions such as apoptosis, proliferation and migration (Deshpande, R. V. et al. Calpain expression in lymphoid cells. Increased mRNA and protein levels after cell activation. J Biol Chem 270, 2497-2505 (1995). Svensson, L. et al. Calpain 2 controls turnover of LFA-1 adhesions on migrating T lymphocytes. PloS one 5, e15090, doi:10.1371/journal.pone.0015090 (2010).). […] Since calpain is activated by calcium, we examined if calcium signaling could compensate for M-CSF signaling to generate FICDs. In the absence of c-FMS signaling, calcium signaling was able to promote the cleavage of […] in the nucleus, and […] reversed the effect of calcium signaling on L-FICD processing (FIG.10C). […]

[1] = system: soluble c-FMS (ectodomain shedding of c-FMS); experiment: Soluble c-FMS in culture media of human CD14+ cells, ELISA; type: cell-based; details: BB94 10 uM for 2 days after 8 hours M-CSF (20 ng/ml)
Experimental: FIGS. 8A-8I show c-FMS expression in synovial macrophages. (A) The levels of M-CSF in synovial fluids from patients with rheumatoid arthritis (RA, n=13) and osteoarthritis (OA, n=8) were measured. (B) Mass spectrometry analysis for proteins from ˜50 kDa bands (red box) identified c-FMS as one of top genes. An image of coomassie blue stained genes showing immunoprecipitated cells lysates with either anti-DDK-tag antibodies or IgG control. (C-G) Human CD14+ cells were cultured with M-CSF (20ng/ml). Immunoblot of c-FMS with different antibodies against C-terminal of c-FMS; (C) C-20, (D) D-8, and (E) #3152. Immunoblot of c-FMS with different antibodies against N-terminal of c-FMS; (F) #61701, (G) H-300. (H-I) Human CD14+ cells were cultured with M-CSF (20 ng/ml) for 8 hours to induce early signals, and then BB94 (10 uM) was added for 2 days. […] (I) Soluble c-FMS was detected by ELISA (n=3). […]
c-FMS and M-CSF in synovial fluids and the supernatants of cell culture was measured using sandwich ELISA kit (R&D Systems; DY329 and DY216) according to manufacturer's instructions. C-telopeptide of type I collagen (CTX-1) and Procollagen 1 N-Terminal Propeptide (P1NP) in Serum from WT and FICDtg^M mice were measured using RatLapstm EIA kit (Immunodiagnostic Systems; AC-06F1) or P1NP-ELISA kit (Cloud-Clone corp; SEA957Mu) according to the manufacturer's instructions.

[2] = system: FICDs (c-FMS intracellular fragments); experiment: FICD generation in M-CSF-cultured human CD14+ cells, immunoblot of whole lysates; type: cell-based; details: BB94 10 uM for 2 days after 8 hours M-CSF (20 ng/ml)
Experimental: FIGS. 8A-8I show c-FMS expression in synovial macrophages. (A) The levels of M-CSF in synovial fluids from patients with rheumatoid arthritis (RA, n=13) and osteoarthritis (OA, n=8) were measured. (B) Mass spectrometry analysis for proteins from ˜50 kDa bands (red box) identified c-FMS as one of top genes. An image of coomassie blue stained genes showing immunoprecipitated cells lysates with either anti-DDK-tag antibodies or IgG control. (C-G) Human CD14+ cells were cultured with M-CSF (20ng/ml). Immunoblot of c-FMS with different antibodies against C-terminal of c-FMS; (C) C-20, (D) D-8, and (E) #3152. Immunoblot of c-FMS with different antibodies against N-terminal of c-FMS; (F) #61701, (G) H-300. (H-I) Human CD14+ cells were cultured with M-CSF (20 ng/ml) for 8 hours to induce early signals, and then BB94 (10 uM) was added for 2 days. (H) Immunoblot with anti c-FMS and α-tubulin antibodies in whole lysates (n=3). (I) Soluble c-FMS was detected by ELISA (n=3). […] All data are shown as mean±SEM. *; p<0.05 significant by two-tailed, paired t-test (A and I). M: mature form, I: immature form, H: hgh mass, L: low mass.
FIGS. 10A-10F show calpain regulates FICD generation. (A and B) Human CD14+ cells were cultured with M-CSF (20 ng/ml) for 8 hours to induce early signals and then (A) MDL 28170(0, 1, 2, 5 uM) or (B) PD150606 (0, 2, 5 uM) was added for 2 days. […]

[3] = system: FICD (mem, H-FICD, L-FICD); experiment: FICD in membrane, cytoplasmic and nuclear fractions of human OCPs, immunoblot; type: cell-based; details: for generation of H-FICD and L-FICD and cellular distribution of FICDs: human CD14+ cells stimulated with ligand (20 ng/ml)
Experimental: (a) Human CD14+ cells were cultured with M-CSF (20 ng/ml) for 8 hours to induce early signals and then DAPT (10uM) was added for 2 days. Protein expression of c-FMS, Na+K+ pump, Lamin B1 and α-tubulin, as determined by immunoblot. ME; membrane extracts, CE; cytoplasmic extracts, and NE; nuclear extracts. (b) Immunohistochemistry of DAPI and c-FMS [middle]. […] Scale: 200×. (c) Cells were starved for three hours and then stimulated with M-CSF for the indicated times. (d and e) Cells were treated with Imatinib (0.3 μM, d) or c-FMS blocking antibody (5 μg) prior to the addition of M-CSF. Protein expression of FICD was measured by immunoblot. Lamin B1 and α-tubulin were used as controls for nuclear and cytoplasmic fractions, respectively. (f) Human CD14+ cells were cultured with M-CSF (20 ng/ml) for 8 hours to induce early signals and then MDL 28170(5 uM). Immunoblot with anti c-FMS and Lamin B1 antibodies. (g and h) Calpain 1, 5, and 6 were knocked down with siRNAs. Cells were cultured with M-CSF for 12 hours. (g) Efficiency of knockdown of Calpain 1, 5, and 6. (h) Immunoblot of c-FMS and Lamin B1. All data are shown as mean±SEM. *,p<0.05 by two-tailed, unpaired t-test (g). Representative results from at least three independent experiments.
(A and B) Human CD14+ cells were cultured with M-CSF (20 ng/ml) for 8 hours to induce early signals and then (A) MDL 28170(0, 1, 2, 5 uM) or (B) PD150606 (0, 2, 5 uM) was added for 2 days. Immunoblot with anti c-FMS and α-tubulin antibodies in whole lysates(n=3). (C) Immunoblot of nuclear lysates with c-FMS and Lamin B1 antibodies. Cells were cultured with M-CSF for 12 hours, and then M-CSF was removed. Cells were subsequently treated with or without CaCl2 (10 mM) for an additional 24 hours. (D) Osteoclastogenesis assay. Human CD14+ cells were cultured with M-CSF, RANKL and MDL28170 for 4 days. […] Black scale bar is 100 μm. […] First two calpain cleavage sites in cytoplasmic domains of c-FMS were used for FICD constructs. (F) A schematic diagram of a FICD construct. Representative results from at least three independent experiments.
Whole cell extracts were prepared by lysis in buffer containing 1× Lamin sample buffer (Bio-rad) and 2-Mercaptoethanol (Sigma) or RIPA buffer (Sigma). The cell membrane-permeable protease inhibitor, Pefablock (1 mM), was added immediately prior to harvest cells. The membrane proteins were extracted with Mem-PER™ Plus Membrane Protein Extraction Kit (Thermorfisher scientific; 89842) according to manufacturer's instructions. To extracts of nucleus protein, cells were incubated in buffer A (10 mM Hepes, pH 7.9, 1.5 mM MgCl2, 10 mM KCl, 0.1 mM EDTA, 0.1 mM EGTA, proteinase inhibitor cocktail (Complete, Roche) and 1 mM DTT) for 15 min at 4° C. NP-40 was added to a final concentration of 0.5%. Nucleus was collected by centrifugation (5000 rpm, 5 min). The pellets were lysed by Bioruptor-ultrasonicator (UCD400, Diagenode) in buffer B (20 mM Hepes, pH 7.9, 0.4M NaCl, 10 mM KCl, 1 mM EDTA, 1 mM EGTA, 10% Glycerol, proteinase inhibitor cocktail and 1 mM DTT) and collected the supernatant by centrifugation (12,000 rpm, 10 min). The protein concentration of nuclear extracts was quantitated using the Bradford assay (Bio-Rad; 5000001). For immunoblot, proteins were separated on 7.5 or 10% SDS-PAGE gels, transferred to polyvinylidene difluoride membranes (PVDF, Millipore; ISEQ00010), and detected by antibodies as listed in the figure legends.

[4] = DAPT 10uM for 2 days after 8 hours M-CSF (20 ng/ml)

denosumab: an anti-RANKL antibody
RA disease activity (arthritic bone erosion): without affecting
progression of arthritic bone erosion (arthritic bone erosion): shows efficacy

O=C(O)/C(S)=C/c1ccc(I)cc1 [PD150606]
inhibition of L-FICD generation (hit in screening) (L-FICD generation): best hits

CNC(=O)[C@H](Cc1ccccc1)NC(=O)[C@H](CC(C)C)[C@H](CSc1cccs1)C(=O)NO [BB94]
ectodomain shedding of c-FMS, soluble c-FMS in the media [1]: inhibited the ectodomain shedding of c-FMS; also recorded: inhibited the shedding of c-FMS and diminished soluble c-FMS in the media
generation of FICDs [2]: suppressed the generation of FICDs

C[C@H](NC(=O)Cc1cc(F)cc(F)c1)C(=O)N[C@H](C(=O)OC(C)(C)C)c1ccccc1 [DAPT, N-[N-(3,5-difluorophenacetyl)-L-alanyl]-S-phenylglycine t-butyl ester]
cytosol and nuclear FICDs [3, 4]: suppressed
membrane-bound FICD [3, 4]: membrane-bound FICD accumulated

B1: M-CSF: ligand for c-FMS (protein, UniProt P09603 33-554, looked up)
Macrophage colony-stimulating …: EEVSEYCSHMIGSGHLQSLQRLIDSQMETSCQITFEFVDQEQLKDPVCYLKKAFLLVQDIMEDTMRFRDNTPNAIAIVQLQELSLRLKSCFTKDYEEHDKACVRTFYETPLQLLEKVKNVFNETKNLLDKDWNIFSKNCNNSFAECSSQDVVTKPDCNCLYPKAIPSSDPASVSPHQPLAPSMAPVAGLTWEDSEGTEGSSLLPGEQPLHTVDPGSAKQRPPRSTCQSFEPPETPVVKDSTIGGSPQPRPSVGAFNPGMEDILDSAMGTNWVPEEASGEASEIPVPQGTELSPSRPGGGSMQTEPARPSNFLSASSPLPASAKGQQPADVTGTALPRVGPVRPTGQDWNHTPQKTDHPSALLRDPPEPGSPRISSLRPQGLSNPSTLSAQPQLSRSHSSGSVLPLGELEGRRSTRDRRSPAEPEGGPASEGAARPLPRFNSVPLTDTGHERQSEGSFSPQLQESVFHLLVPSVILVLLAVGGLLFYRWRRRSHQEPQRADSPLEQPEGSPLTQDDRQVELPV
generation of H-FICD and L-FICD and cellular distribution of FICDs [3]: induced

B2: IL-34: ligand for c-FMS (protein, UniProt Q6ZMJ4 21-242, looked up)
Interleukin-34: NEPLEMWPLTQNEECTVTGFLRDKLQYRSRLQYMKHYFPINYKISVPYEGVFRIANVTRLQRAQVSERELRYLWVLVSLSATESVQDVLLEGHPSWKYLQEVETLLLNVQQGLTDVEVSPKVESVLSLLNAPGPNLKLVRPKALLDNCFRVMELLYCSCCKQSSVLNWQDCEVPSPQSCSPEPSLQYAATQLYPPPPWSPSSPPHSTGSVRPVRAQGEGLLP
generation of H-FICD and L-FICD and cellular distribution of FICDs [3]: induced
